Data set [1] in a line: method code SF-AS, from DOI: 10.2116/analsci.8.761. The following applies: pH 6.0.
Experiment in data set [2]: not given
This is another data set of the same source.

Data set [3] can be described thus: method code SF-TN, from DOI: 10.1085/jgp.71.1.93, PMID: 621494.
A short description of data set [4]: method code SF-HPLC, from DOI: 10.1016/j.bmcl.2004.01.062, PMID: 15026043. To be noted: pH 5.5.
Experiment in data set [5]: not given
This is another data set of the same source.

Data set [6] is described as follows: method code SF-AS, from DOI: 10.1021/acs.jmedchem.5b00731, PMID: 26397825. The following applies: pH 7.4.
Data set [7] is described as follows: method code SF-HPLC, from DOI: 10.1016/0378-5173(89)90133-6. To be noted: pH 7.4.
Data set [8] in a line: method code SF-RI, from Korenman, M.; Dobromyslova, M. (1975). Distribution of cellosolves between organic solvents and water. Zh. Prikl. Khim., 48(12)2791-2794.
Experiment in data set [9]: not given
This is another data set of the same source.

Data set [10] in a line: method code SF-GR, from DOI: 10.1021/jm00219a024, PMID: 926124.
The nature of data set [11]: method code SF-HPLC, from DOI: 10.1016/s0045-6535(01)00105-9, PMID: 11695583.
Experiment in data set [12]: not given
This is another data set of the same source.

For data set [13] the following is noted: pH 7.4.
Data set [14] can be described thus: method code SF-TN, from Korenman, I M.; Gurevich, N.; Kulagina, G. (1973). Extraction of certain n-alkylamines from aqueous solutions. Zh. Prikl. Khim., 46(3)726-728.
Data set [15] in a line: method code SF-GLC, from DOI: 10.1021/jo01265a071.
Data set [16] in a line: method code SF-GLC, from DOI: 10.1021/je970020p.
The nature of data set [17]: method code SF-GLC, from DOI: 10.1021/ac00241a023.
Data set [18] can be described thus: method code SF, from DOI: 10.1016/0014-2999(70)90221-9, PMID: 5440297. To be noted: pH 7.4.
Data set [19] in a line: method code SF-AS, from DOI: 10.1021/jm00291a017, PMID: 5140011.
Data set [20] is described as follows: from Wadhwa, L.; Chandiran, S.; Sharma, P. (2004). Alkyl esters of 6-methoxy-2-naphthylacetic acid as potential prodrugs - Synthesis, physicochemical properties, chemical stability and enzymatic …. The following applies: pH 7.4.
Data set [21] is described as follows: method code SF-AS, from DOI: 10.1021/jm00197a006, PMID: 533877.
The nature of data set [22]: method code SF, from DOI: 10.1002/etc.5620130110.
A short description of data set [23]: method code SF-AS, from Kosanovic, D.; Dumanovic, D.; Jovanovic, J. (1988). Solubility in octanol And the octanol-water partition coefficients of some 4(5)- and 5-nitroimidazoles. 53(10)559-563.
Experiment in data set [24]: not given
The source holds these as a separate data set.

Data set [25] can be described thus: method code SF-HPLC, from DOI: 10.1016/j.ejps.2013.10.002, PMID: 24161609.
A short description of data set [26]: method code SF-AS, from DOI: 10.1081/jlc-120022394.
Experiment in data set [27]: not given
This is another data set of the same source.

Experiment in data set [28]: not given
The source holds these as a separate data set.

Data set [29] can be described thus: method code SF-AS, from PMID: 7149911. To be noted: pH 8.9.
Data set [30] in a line: method code SF, from DOI: 10.1177/00220345800590120501, PMID: 6941993.
Experiment in data set [31]: not given
The source holds these as a separate data set.

Experiment in data set [32]: not given
The source holds these as a separate data set.

The nature of data set [33]: method code SF-AS, from DOI: 10.1002/jps.2600671008, PMID: 702280. The following applies: pH 7.0.
A short description of data set [34]: method code SF, from DOI: 10.1016/s0960-894x(00)80094-3. The following applies: pH 7.4.
Data set [35] is described as follows: method code SF-AS, from DOI: 10.1016/0045-6535(84)90003-1.
Experiment in data set [36]: not given
The source holds these as a separate data set.

Data set [37] is described as follows: method code SF, from DOI: 10.1016/0041-008x(67)90079-8.
Experiment in data set [38]: not given
The source holds these as a separate data set.

Data set [39] can be described thus: method code SF-AS, from Suikov, S.Yu.; Bondarenko, A.V.; Bogza, S.L.; Lutsyk, A.I. (2003). Distribution of 5-aminopyrazoles and 5-aminoisoxazoles in the octanol-water system. Ukr. Khim. Zh. (Russ. Ed.), 69(5/6)31-34.
Experiment in data set [40]: not given
The source holds these as a separate data set.

Data set [41] in a line: method code SF-HPLC, from DOI: 10.1016/j.nucmedbio.2010.03.011, PMID: 20610161. To be noted: pH 7.4.
Experiment in data set [42]: not given
This is another data set of the same source.

Experiment in data set [43]: not given
This is another data set of the same source.

Data set [44] in a line: method code SF-AS, from DOI: 10.1016/0891-5849(94)00112-w, PMID: 7744299. To be noted: pH 7.5.
Data set [45] is described as follows: method code SF, from DOI: 10.1021/jm030399c, PMID: 14711317. To be noted: pH 7.4.

Usually logD stands for lipophilicity at a set pH, counting ionised and neutral species.

Consider `OCc1cc(Br)cc(Br)c1O`, for which the logD in [1] amounted to 2.72.
In turn, `Oc1cc(Cl)c(Cl)cc1Cl` yielded a logP of 3.63.
`O=[N+]([O-])c1cncnc1` showed a logP in data set [2] of -0.05.
As to `CCCC(O)C(=O)O` (stereo unspecified), the logP in [3] is 0.45.
On to `CN(C)C(=O)Oc1ccc(CC(NC(=O)C2N(S(=O)(=O)c3cnn(C)c3)CSC2(C)C)C(=O)OCCOc2ccccc2)cc1` (stereo unspecified), for which the logD in data set [4] amounted to 3.27.
The molecule `CCCC[N+](=O)[O-]` came in with a logP in data set [5] of 1.38.
The molecule `COCCOCCOCCOCCOCN(C)c1ccc(C=C2CCC(=Cc3ccc(N(C)COCCOCCOCCOCCOC)cc3)C2=O)cc1` returned a logD in data set [6] of 2.73.
Consider `OC(Cn1ccnc1)c1ccc(CCc2ccccc2)cc1` (stereo unspecified), for which the logD in data set [7] amounted to 3.4.
Consider `CC(C)OCCO`, for which the logP in data set [8] is 0.05.
`Brc1ccc(Br)cc1` gave a logP in data set [9] of 3.89.
`CCCNC(=O)NO` returned a logP in data set [10] of -0.22.
For the molecule `Brc1ccc(Br)c(Br)c1Br`, the logP in data set [11] amounted to 5.
`Oc1c(Br)cc(Br)cc1Br` yielded a logP in data set [12] of 4.24.
For `CCCCC(OC(Cc1ccccc1)C(=O)N1CCC(OCOC)CC1)C(=O)NC(CC1CCCCC1)[C@@H](O)CC(C(=O)NCCCN/C(=N/C)NC#N)C(C)C` (stereo partly specified), the logD in [13] came out at 4.4.
Regarding `CCCN`, the logP in [14] came to 0.28.
`CCCCC(OC(Cc1ccccc1)C(=O)N1CCC(OCOC)CC1)C(=O)NC(CC1CCCCC1)[C@@H](O)CC(C(=O)NCCCNC(C)=O)C(C)C` (stereo partly specified) returned a logD in data set [13] of 4.3.
For the molecule `CCCCCl`, the logP in [15] was 2.39.
For the molecule `Clc1c(Cl)c(Cl)c(Cl)c(Cl)c1Cl`, the logP in [16] worked out at 5.74.
`Brc1cc(Br)c(Br)cc1Br` registered a logP in data set [17] of 5.13.
`O=C[C@H](O)[C@H](O)[C@H](O)CO` gave a logD in data set [18] of -2.32.
Molecule `S=C1CCCN1` displayed a logP in data set [19] of -0.05.
In the case of `CCCCOC(=O)Cc1ccc2cc(OC)ccc2c1`, the logD in [20] turned out to be 4.75.
`CC(=O)C=NO`: the logP in data set [21] was determined as 0.39.
As for `COP(=O)(OC)C(O)C(Cl)(Cl)Cl` (stereo unspecified), the logP in [22] is 1.7.
Molecule `Cc1ncc([N+](=O)[O-])n1C` displayed a logP in data set [23] of 0.31.
`O=[N+]([O-])/C=C1\NCCCS1` had a logP in [24] of -0.4.
Molecule `O=C(O)/C=C/C(=O)O` gave a logP in data set [25] of -0.04.
The molecule `CCOC(=O)C(=Cc1ccc(OC)cc1)NC=O` returned a logP in data set [26] of 2.22.
Consider `COCCOCCOCCOCCOCN(C)c1ccc(C=C2CC(=Cc3ccc(N(C)COCCOCCOCCOCCOC)cc3)C2=O)cc1`, for which the logD in data set [6] was 2.54.
Turning to `CCOC(=O)C(=Cc1ccc(OC)c(OC)c1)NC=O`, the logP in data set [26] was determined as 1.97.
The molecule `Cc1nnn[nH]1` registered a logP in data set [27] of -0.49.
`Oc1nc(Cl)c(Cl)cc1Cl`: the logP in [28] was 2.27.
Turning to `CN(N=O)C(N)=O`, in [29], the logD is -0.4.
The molecule `C=COC(C)=O` showed a logP in data set [30] of 0.6.
As for `Oc1c(Cl)cc(Cl)c(Cl)c1O`, in [31], the logP was determined as 3.6.
For `Oc1c(Cl)c(Cl)c(Cl)c(Cl)c1Cl`, the logP in data set [32] was determined as 4.79.
On to `Clc1ccccn1`, for which the logD in [33] was 1.34.
As to `C[C@@H]1CN(O)C(=O)[C@@H]1N`, the logD in data set [34] was -3.42.
In data set [35], `Oc1cc(Cl)cc(Cl)c1Cl` had a logP of 3.84.
As for `Oc1cc(Br)ccc1Br`, the logP in [36] amounted to 3.22.
Take `Clc1nc(Cl)c(Cl)c(Cl)c1Cl`: the logP in data set [37] stood at 3.53.
As for `CC(Cl)Cl`, in data set [38], the logP stood at 1.82.
In the case of `Cc1c(-c2ccccc2)n[nH]c1N`, the logP in data set [39] was determined as 1.65.
In data set [40], `O=C(O)P(=O)(O)O` yielded a logP of -2.
Take `O=[N+]([O-])c1ncn(CC(O)CF)n1` (stereo unspecified): the logD in [41] was -0.46.
Regarding `CCCCCO`, the logP in data set [42] came out at 1.41.
Regarding `Cc1noc(N)c1-c1ccccc1`, the logP in [39] was determined as 2.02.
For the molecule `CNC(N)=S`, the logP in data set [43] is -0.68.
In turn, `CC(C)(C)N=O` returned a logD in [44] of 0.91.
Consider `COC(=O)Cc1ccc2cc(OC)ccc2c1`, for which the logD in [20] stood at 3.04.
`O=C(NCCOCCNc1n[n+]([O-])c2ccccc2[n+]1[O-])c1cccc2cc3ccccc3nc12` returned a logD in [45] of 1.84.

The values are drawn from the SangsterLogP compilation.
